# Measurements published in US20090131480A1 (priority 2005, published 2009).
# Assays:
# [1] = system: organotypic hippocampal slice cultures; experiment: Oxygen-glucose deprivation (OGD) in organotypic hippocampal slice cultures (PI fluorescence in CA1); format: cell-based, Wistar rat
# Method: (§1) Medium was changed every 3-4 days.
# (§2) Neurotoxicity protocols are outlined below.
# (2) Oxygen-Glucose Deprivation (OGD): Experimental ischaemia was performed by exposing cultures to oxygen-glucose deprivation (OGD) as described previously. […] OGD was induced by transferring cultures to glucose-free SFM (+PI) which had been saturated with 95% N2/5% CO2. Culture plates (without lids) were then sealed into an airtight chamber in which the atmosphere was saturated with 95% N2/5% CO2 by continuously blowing through gas at 10 L/min for ten minutes before being sealed and placed in the incubator for 50 mins (total time of OGD was therefore 60 mins). At the end of the period of OGD cultures were returned to normoxic SFM containing PI and placed back in the incubator for 23 hours.
# [2] = system: organotypic hippocampal slice cultures; experiment: Hypoxia-induced neurodegeneration in organotypic hippocampal slice cultures (PI fluorescence in CA1); format: cell-based, Wistar rat
# Method: as §1, §2
# (3) Hypoxia: Hypoxia was performed by exposing cultures to oxygen-deprivation as described previously. Pringle et al, Brain Research, 755:36-46 (1997); Pringle et al, Stroke, 27:2124-2130 (1996). Hypoxia was induced by transferring cultures to SFM (+PI) which had been saturated with 95% N2/5% CO2. Culture plates (without lids) were then sealed into an airtight chamber in which the atmosphere was saturated with 95% N2/5% CO2 by continuously blowing through gas at 10 L/min for ten minutes before being sealed and placed in the incubator for 170 mins (total time of hypoxia was therefore 180 mins). At the end of the period of hypoxia, cultures were returned to normoxic SFM (+PI) and placed back in the incubator for 21 hours. The freeradical scavenger MnTBAP (100 μM) was used as a positive neuroprotective control.
# [3] = system: dopamine turnover in mice striatum; experiment: Dopamine, DOPAC and HVA content / dopamine turnover in mice striatum (HPLC with electrochemical detection); format: in vivo, C57BL/6 mice; conditions: for dopamine turnover in mice: monotherapy vs combination, FIG. 3
# Method: C57BL/6 mice (SLC, Shizuoka, Japan) were used for the experiment. […] The two drugs were orally administered by gavage 1 hour before sampling. At the time the mice were sacrificed, both striata were rapidly dissected and were frozen by liquid nitrogen. The samples were subsequently sonicated in 0.5 ml of chilled 0.5 M perchloric acid containing 0.1 M EDTA, and centrifuged at 13000 rpm for 15 min at 4° C. Then monoamine levels were measured by HPLC with electrochemical detection. Supernatant aliquots of 201 were separated over an Eicompak SC5-ODS column (3×150 mm; Eicom, Japan) with mobile phase of 17% methanol, 83% 0.1M acetate/citrate buffer (pH 3.5) containing 190 mg/ml sodium 1-octanesulfonate and 50 mg/ml EDTA, and a flow rate of 0.65 ml/min. Peaks of dopamine, DOPAC, HVA, 5-HT, and 5-HIAA were quantified by area integration with PowerChrom (eDAQ, Australia), and concentrations were expressed as nanograms per milligram of striatal tissue.
# [4] = system: organotypic hippocampal slice cultures; experiment: AMPA toxicity in organotypic hippocampal slice cultures (PI fluorescence in CA1); format: cell-based, Wistar rat
# Method: as §1, §2
# (1) AMPA: Cultures were transferred to fresh SFM (+PI) containing 30 μM S-AMPA for 3 hours under normal culture conditions. At the end of this period, cultures were returned to fresh SFM for 21 hours prior to determination of neuronal death by PI imaging. GYKI52466 (30 μM) was used as a positive, neuroprotective control.
# [5] = system: organotypic hippocampal slice cultures; experiment: Duroquinone free radical-mediated toxicity in organotypic hippocampal slice cultures (PI fluorescence in CA1); format: cell-based, Wistar rat; conditions: 100 μM; 100 μM duroquinone 3 hours; duroquinone alone 51.0±3.4%
# Method: as §1, §2
# (5) Free radical-mediated toxicity (Duroquinone): Duroquinone produces superoxide-mediated neurotoxicity producing a selective neuronal lesion in the CA1 region. Wilde et al, J. Neurochem., 69(2):883-886 (1997). Cultures were transferred to fresh SFM (+PI) containing 100 μM duroquinone for 3 hours under normal culture conditions. At the end of this period, cultures were returned to fresh SFM for 21 hours prior to determination of neuronal death by PI imaging. MnTBAP (100 μM) was used as a positive neuroprotective control.
# [6] = C57BL/6, mouse, in vivo, po, 1 h
smiles,measurement,setting,value
"N#Cc1ccccc1-c1cc(-c2ccccn2)cn(-c2ccccc2)c1=O [2-(2-oxo-1-phenyl-5-pyridin-2-yl-1,2-dihydropyridin-3-yl)benzonitrile]",effect on OGD-induced neurotoxicity,"[1]; any other concentration assessed (up to 3 μM), OGD alone 50.6±5.2%",no significant effect
same,EC50 in OGD model,[1]; six-point concentration-response curve,could not be established
same,"neuronal damage, % of CA1 with PI fluorescence","[2]; 5 μM, hypoxia alone 45.1±3.5%",3.9±1.8%
same,content of HVA in striatum,"[3]; 1 mg/kg, orally, 1 hour before sampling, FIG. 1",elevated
same,dopamine turnover in mice,[3],modulated dopamine turnover but neither reached significance
CC1=NN=C(c2ccc(N)cc2)c2cc3c(cc2C1)OCO3 [GYKI52466],"neuronal damage, % of CA1 with PI fluorescence","[1]; 30 μM, 60 minutes OGD, OGD alone 50.6±5.2%",36.9±3.6%
same,"neuronal damage, % of CA1 with PI fluorescence","[4]; 30 μM test compound, 30 μM AMPA 3 hours, AMPA alone 65.1±1.7%",14.3±2.3%
same,"neuronal damage, % of CA1 with PI fluorescence","[4]; 30 μM, pre-incubation series, AMPA alone 46.5±5.0%",21.7±2.7%
O=C(O)c1ccc(/C2=C3\C=CC(=N3)/C(c3ccc(C(=O)O)cc3)=c3/cc/c4[n]3[Mn]([Cl])[n]3c2ccc3/C(c2ccc(C(=O)O)cc2)=C2/C=CC(=N2)\C=4c2ccc(C(=O)O)cc2)cc1 [MnTBAP],"neuronal damage, % of CA1 with PI fluorescence",[5],0.1±0.0%
same,"neuronal damage, % of CA1 with PI fluorescence","[1]; 100 μM, 60 minutes OGD, OGD alone 50.6±5.2%",0.1±0.0%
same,"neuronal damage, % of CA1 with PI fluorescence","[1]; 100 μM, second series, OGD alone 44.8±[…]",0.6±0.2%
same,"neuronal damage, % of CA1 with PI fluorescence","[2]; 100 μM, 3 hours hypoxia, hypoxia alone 45.1±3.5%",0.2±0.1%
same,"neuronal damage, % of CA1 with PI fluorescence","[2]; 100 μM, repeated experiment, hypoxia alone 36.9±[…]",0.8±0.4%
same,"neuronal damage, % of CA1 with PI fluorescence","[2]; second set, hypoxia alone 36.4±[…]",0.0±0.0%
"COc1cc2c(cc1OC)C(=O)C(CC1CCN(Cc3ccccc3)CC1)C2 (stereo not shown) [donepezil, 1-benzyl-4-((5,6-dimethoxy-1-indanon)-2-yl)methylpiperidine]",dose at which peripheral side effect was shown,[6],≥ 7.5 mg/kg
same,content of dopamine in striatum,"[3]; donepezil orally, 1 hour before sampling",reduced the content of dopamine significantly
same,DPAC/DA,"[3]; donepezil orally, FIG. 2",increased significantly
same,HVA/DA,"[3]; donepezil orally, FIG. 2",increased significantly
same,dopamine turnover in mice,[3],modulated dopamine turnover but neither reached significance
